In publication PMC11672540 (2024) one finds KD data, which are given here for eight molecules.

Common to all, as to assay: ITC
On the technique in general: In ITC the heat of successive injections is recorded.

Experiment [1] has as its system ML4 (DNA, aptamer, none) TTCAAATCTTGGTACGTTCTGCCTTTTCTTATTTTGCTTTGGGTTACCTAGTCTAGATTTGAA
The following applies: 0.5x PBS (about 68 mM NaCl, 1.4 mM KCl), 5 mM MgCl2.

The subject of experiment [2] is ML13 (DNA, aptamer, none) TTCAAATCTGAGCAGCCTAGTTACTGACGGGTTTATAGTACTCGCACTGAGTCTAGATTTGAA
The following applies: 0.5x PBS (about 68 mM NaCl, 1.4 mM KCl), 5 mM MgCl2, 23 °C.

In experiment [3] the test system is ML12 (DNA, aptamer, none) TTCAAATCTGCGGCGACTAATTCTTAGTGGTGGTTGCAATGCGCTGGGATGAGTCTAGATTTGAA
The following applies: 0.5x PBS (about 68 mM NaCl, 1.4 mM KCl), 5 mM MgCl2, 23 °C.

Experiment [4] has as its system MT2-R1 (DNA, aptamer, none) GGGACGACGCTAGGGGATCTTTTGGGGTTTGTATGGGCGTCGTCCC
Particulars: 137 mM NaCl, 2.7 mM KCl, 1 mM MgCl2; 1x PBS, 23 °C.

The test system of experiment [5] is 84-nt aptaMETH (DNA, aptamer, none) ACTGGAGCTCAATCAGTACACGACGGTTGCAAGTGGGACTCTGGTAGGCTGGGTTAATTTGGGACAAGCTTCAACCATGGAGTA
The following applies: 200 mM NaCl, 5 mM MgCl2; 20 mM Tris pH 7.4, 23 °C.

Experiment [6] relates to Aptamer-2 (DNA, aptamer, none) AGGAATTCAGATCTCCCTGCAGGTGGTGTTTTTTTTGTGTGCTGTGTTTTTGTGATGCATGCTCGAGGAGCTCAGGATCCCG
Particulars: 10 mM NaCl, 0.5 mM KCl, 0.2 mM MgCl2, 0.1 mM CaCl2; 2 mM Tris-HCl, 23 °C; very weak or no binding.

Experiment [7] relates to ML3-mut5 (DNA, aptamer, none) TTCAAATCTTATGTACGTTCTATCGCATGGATGGGATTTTTGGTTACCTAGTCTAGATTTGAA
The following applies: 0.5x PBS (about 68 mM NaCl, 1.4 mM KCl), 5 mM MgCl2, 0.005% Triton X-100, 23 °C, table says NA, 2000 titrant, 50 aptamer.

Experiment [8] relates to ML4-mut3 (DNA, aptamer, none) TTCAAATCTTGGTACGTTCTGCCTATTCTTATTTTGCTTTGGGTTACCTAGTCTAGATTTGAA
Particulars: 0.5x PBS (about 68 mM NaCl, 1.4 mM KCl), 5 mM MgCl2, 0.005% Triton X-100, 23 °C.

In experiment [9] the test system is M4 (DNA, aptamer, none) GGGACGACGCACTATGGCTAGGGTTGGTACGGTCGTGAACCGCGGGGTGTCGTCCC
The following applies: 137 mM NaCl, 2.7 mM KCl, 1 mM MgCl2; 1x PBS, 23 °C.

Experiment [10] concerns ML3-mut1 (DNA, aptamer, none) TTCAAATCTTATGTAAGTTCTATCGCATGGATGGGATTTTGGGTTACCTAGTCTAGATTTGAA
Particulars: 0.5x PBS (about 68 mM NaCl, 1.4 mM KCl), 5 mM MgCl2, 0.005% Triton X-100, 23 °C.

In experiment [11] the test system is ML4-mut5 (DNA, aptamer, none) TTCAAATCTTGGTACGTTCTGCCTTTTCTTATATTGCTTTGGGTTACCTAGTCTAGATTTGAA
The following applies: 0.5x PBS (about 68 mM NaCl, 1.4 mM KCl), 5 mM MgCl2, 0.005% Triton X-100, 23 °C.

Experiment [12] has as its system ML4-mut4 (DNA, aptamer, none) TTCAAATCTTGGTACGTTCTGCCTTTACTTATTTTGCTTTGGGTTACCTAGTCTAGATTTGAA
The following applies: 0.5x PBS (about 68 mM NaCl, 1.4 mM KCl), 5 mM MgCl2, 0.005% Triton X-100, 23 °C.

The subject of experiment [13] is ML4-mut7 (DNA, aptamer, none) TTCAAATCTTGGTACGTTCTGCCTTTTCTTATTTTGCTATGGGTTACCTAGTCTAGATTTGAA
The following applies: 0.5x PBS (about 68 mM NaCl, 1.4 mM KCl), 5 mM MgCl2, 0.005% Triton X-100, 23 °C.

For experiment [14], the system named is ML3-mut4 (DNA, aptamer, none) TTCAAATCTTATGTACGTTCTATCGCATGGATGGGATTATGGGTTACCTAGTCTAGATTTGAA
Particulars: 0.5x PBS (about 68 mM NaCl, 1.4 mM KCl), 5 mM MgCl2, 0.005% Triton X-100, 23 °C.

Experiment [15] concerns ML3-mut3 (DNA, aptamer, none) TTCAAATCTTATGTACGTTCTATCGCATGGATGTGATTTTGGGTTACCTAGTCTAGATTTGAA
The following applies: 0.5x PBS (about 68 mM NaCl, 1.4 mM KCl), 5 mM MgCl2, 0.005% Triton X-100, 23 °C.

The subject of experiment [16] is MT2-R3 (DNA, aptamer, none) GGGACGACGGTACCCGCCGGTGCAGGATCTGGGGTGGTGTCGTCCC
The following applies: 137 mM NaCl, 2.7 mM KCl, 1 mM MgCl2; 1x PBS, 23 °C.

For experiment [17], the system named is ML3-mut2 (DNA, aptamer, none) TTCAAATCTTATGTACGTACTATCGCATGGATGGGATTTTGGGTTACCTAGTCTAGATTTGAA
The following applies: 0.5x PBS (about 68 mM NaCl, 1.4 mM KCl), 5 mM MgCl2, 0.005% Triton X-100, 23 °C.

Experiment [18] relates to ML4-mut2 (DNA, aptamer, none) TTCAAATCTTGGTACGTTCTGCATTTTCTTATTTTGCTTTGGGTTACCTAGTCTAGATTTGAA
Particulars: 0.5x PBS (about 68 mM NaCl, 1.4 mM KCl), 5 mM MgCl2, 0.005% Triton X-100, 23 °C.

Experiment [19] deals with ML4-mut6 (DNA, aptamer, none) TTCAAATCTTGGTACGTTCTGCCTTTTCTTATTTAGCTTTGGGTTACCTAGTCTAGATTTGAA
Particulars: 0.5x PBS (about 68 mM NaCl, 1.4 mM KCl), 5 mM MgCl2, 0.005% Triton X-100, 23 °C.

The test system of experiment [20] is ML10 (DNA, aptamer, none) TTCAAATCTGAGCAGCCTAGTTACTGACGGGTTTATAGTACTCACATTGAGTCTAGATTTGAA
The following applies: 0.5x PBS (about 68 mM NaCl, 1.4 mM KCl), 5 mM MgCl2, 23 °C.

Experiment [21] has as its system ML3-mut6 (DNA, aptamer, none) TTCAAATCTTATGTACGTTCTATCGCATGGATGGGATTTTGGGTTACCAAGTCTAGATTTGAA
Particulars: 0.5x PBS (about 68 mM NaCl, 1.4 mM KCl), 5 mM MgCl2, 0.005% Triton X-100, 23 °C, table says NA, 2000 titrant, 50 aptamer.

For experiment [22], the system named is ML3 (DNA, aptamer, none) TTCAAATCTTATGTACGTTCTATCGCATGGATGGGATTTTGGGTTACCTAGTCTAGATTTGAA
Particulars: 0.5x PBS (about 68 mM NaCl, 1.4 mM KCl), 5 mM MgCl2; 0.5x PBS pH 7.4, 0.005% Triton X-100, 23 °C; 9.9 at 2 mM, 34.3 at 1 mM Mg2+.

Experiment [23] has as its system ML7 (DNA, aptamer, none) TTCAAATCTGGTGCCCTTTCGCAGTCGGTTGGTAATGAGATCACTTTAGAGTCTAGATTTGAA
The following applies: 0.5x PBS (about 68 mM NaCl, 1.4 mM KCl), 5 mM MgCl2, 23 °C.

In experiment [24] the test system is ML11 (DNA, aptamer, none) TTCAAATCTGAGCAGCCTAGTTACTGACGGGTTTATAGTACTCGTATTGAGTCTAGATTTGAA
Particulars: 0.5x PBS (about 68 mM NaCl, 1.4 mM KCl), 5 mM MgCl2, 23 °C.

The subject of experiment [25] is MT2-R4 (DNA, aptamer, none) GGGACGACGGCAATTGCCGGTGCAGGATCTGAATTATCGTCGTCCC
The following applies: 137 mM NaCl, 2.7 mM KCl, 1 mM MgCl2; 1x PBS, 23 °C.

For experiment [26], the system named is MT2-R2 (DNA, aptamer, none) GGGACGACGAGGGGATCCATCCAATGGGGTTTGTATACGTCGTCCC
The following applies: 137 mM NaCl, 2.7 mM KCl, 1 mM MgCl2; 1x PBS, 23 °C.

The subject of experiment [27] is ML4-mut1 (DNA, aptamer, none) TTCAAATCTTGGTACGTACTGCCTTTTCTTATTTTGCTTTGGGTTACCTAGTCTAGATTTGAA
Particulars: 0.5x PBS (about 68 mM NaCl, 1.4 mM KCl), 5 mM MgCl2, 0.005% Triton X-100, 23 °C.

Experiment [28] relates to M13 (DNA, aptamer, none) GGGACGACGGCACGAGGTTATTCGTTGGTTGCACTGCGCTGGGAGGAAGTCGTCCC
Particulars: 137 mM NaCl, 2.7 mM KCl, 1 mM MgCl2; 1x PBS, 23 °C; lowest KD of trial 3.

As usually defined, the KD is the concentration at which binding is half-saturated. A low value points to a tighter complex.

Where only a bound is given, the exact number is not on record here.

Consider `CNC(C)Cc1ccc(O)cc1` (stereo not shown), for which the KD in experiment [1] (0.5x PBS, 23 °C) was found to be 255 ± 8 µM.

`CCCC(C(=O)c1ccc2c(c1)OCO2)N1CCCC1` (stereo not shown) came in with a dissociation constant KD in experiment [1] (0.5x PBS, 23 °C) of 344 ± 23 µM.

`COC(=O)C(c1ccccc1)C1CCCCN1` (stereo not shown) displayed a KD in experiment [1] (0.5x PBS, 23 °C) of 749 ± 10 µM.

On to `CC(N)Cc1ccccc1` (stereo not shown), for which the KD in experiment [2] (double titration) is 140 ± 3.9 µM; in [3], 18.2 ± 0.5 µM; in [1] (0.5x PBS, 23 °C), 117 ± 4 µM; in experiment [4] it was 5.7 ± 0.2 µM.

With `CN[C@H](C)Cc1ccccc1`, the KD in [5] was more than 1000 µM; in experiment [6], more than 1000 µM; in experiment [1] (0.5x PBS, 23 °C), 450 ± 21 µM.

In turn, `CNC(C)Cc1ccc2c(c1)OCO2` (stereo not shown) gave a KD in experiment [1] (0.5x PBS, 23 °C) of 223 ± 8 µM.

Take `CN[C@@H](C)Cc1ccccc1`: the KD was more than 1000 µM in experiment [7]; 3.2 ± 0.1 µM in experiment [8]; 12 µM in [9]; 408 ± 16 µM in experiment [10]; 3.3 ± 0.1 µM in [11]; 4.9 ± 0.2 µM in experiment [12]. In addition, the KD stood at 64.3 ± 3.9 µM in experiment [13]; 72.5 ± 3.1 µM in [14]; 1.4 ± 0.1 µM in experiment [15]; 7.0 ± 0.4 µM in experiment [2]; 5.7 ± 0.3 µM in experiment [3]; 18.0 ± 1.1 µM in experiment [16]. Besides, the KD was 39.0 ± 1.8 µM in experiment [17]; 364 ± 28 µM in experiment [5]; 4.0 ± 0.1 µM in [18]; more than 1000 µM in experiment [6]; 3.8 ± 0.1 µM in experiment [19]; 1.9 ± 0.1 µM in experiment [20]. Further, the KD in [1] (0.5x PBS pH 7.4, 0.005% Triton X-100, 23 °C, 16.2 at 2 mM, 65.2 at 1 mM Mg2+) was 2.5 ± 0.1 µM; in [21] it was more than 1000 µM; in experiment [22], 1.5 ± 0.1 µM; in experiment [23], 1.30 ± 0.03 µM; in experiment [24] it was 2.4 ± 0.1 µM; in [4], 2.5 ± 0.1 µM. Moreover, the KD in experiment [25] stood at 10.1 ± 0.7 µM; in experiment [26], 5.0 ± 0.1 µM; in experiment [27], 67.1 ± 4.1 µM; in experiment [28], 3.3 µM.

`CN[C@@H](C)[C@@H](O)c1ccccc1` showed a dissociation constant (KD) in [1] (0.5x PBS, 23 °C) of 372 ± 24 µM.
